{"source": "patent US7033618B2", "about": "“Methods of administering gaultherin-containing compositions” (Rutgers University, The State University of New Jersey, priority 1999, dated 2006)", "key": {"[1]": {"experiment": "Rat hind paw inflammatory (edema and hyperalgesia) model, Freund's adjuvant", "format": "in vivo, Sprague-Dawley rats", "procedure": "Wintergreen-derived gaultherin-containing extract was administered by per-oral gavage at human dose equivalents of 200 mg and 400 mg per day and Naproxen was administered at a dose of 440 mg per day. Male Sprague-Dawley rats (300–350 grams) were treated for 5 days by gavage. Inflammation (edema and hyperalgesia) was induced 3 days prior to treatment through intraplantar injection of Freund's adjuvant (containing 170 μg Mycobacterium butyricum). Edema was determined by physical measurements of paw thickness and ankle width. Pain tolerance (i.e., pain reduction) was mechanically assessed via digital Von Frey determinations using a series of measurements at 6 locations on the surface of a paw. [Ren et al., ILAR Journal, 40(3):1–12 (1999), Kayser et al., Pain, 28:99–107 (1987)] Measurement terminated at the point of paw withdrawal, auditable indication of discomfort, or animal shuddering. Measurements were performed on left and right paws."}, "[2]": {"test_system": "platelet aggregation in vivo (bleeding time in mouse tail tips)", "experiment": "In vivo bleeding time in mouse tail tips", "set-up": "species or system mice", "conditions": "oral, pretreatment time 1 h, Aspirin 100 mg/kg", "procedure": "Wintergreen-derived gaultherin containing extracts were also shown to inhibit platelet aggregation in vivo. […] The gaultherin-containing extract prolonged mouse bleeding times assessed at 1, 3, and 6 hours after treatment. Therefore, gaultherin-containing extracts prevent platelet aggregation in vitro and in vivo. In vivo assay: The gaultherin-containing extract was mixed with vehicle (2% Tween 80/distilled water) and orally administered to 5 ICR […] (22+2 g) at the doses given in Table V. After 1, 3, or 6 hours of treatment, the mice were suspended in holders and 0.5 mm of the tip of each tail was transected and immersed in a test tube containing saline at 37° C. The bleeding time is defined as the time required for the bleeding to cease for a period of greater than 15 seconds. Prolongation of the bleeding time over that of control animals was then calculated. Aspirin was used as the standard to ensure that the assay was performing as expected."}, "[3]": {"experiment": "Gastric irritation in fasted rats", "format": "in vivo, Wistar rats", "conditions": "oral gavage, overnight-fasted rats, 4 h after treatment, extract 5000 mg/kg; for Gastric irritation Total Score: total for three rats (0-4 each), aspirin 150 mg/kg (equal total salicylate)", "procedure": "Wintergreen-derived, gaultherin-containing extract and aspirin were given by oral gavage to overnight-fasted Wistar rats (200+/−20 g). The 5000 mg/kg dose of wintergreen extract and the 150 mg/kg dose of aspirin used in the experiment contain equal total amounts of salicylate. Four hours after treatment, the stomach lining was harvested and scored for gastric irritation [Guth et al., Gastroenterology, 76: 88–93 (1979)]. A score of zero was given for no sign of hyperaemia (excess blood or engorgement with blood) or bleeding. A score of one was given when hyperaemia was evident. A score of two was given when some spot bleeding was observed. A score of three was assigned for any hyperaemia and spot bleeding and a score of four for hyperaemia and spot bleeding occurred over the entire stomach. The total aspirin score for three rats was nine as all three rats experienced some hyperaemia and spot bleeding. The total wintergreen-derived, gaultherin-containing extract score was two because only two of the three rats were noted to have some hyperaemia. Based on these responses, the gastric irritation caused by wintergreen extract was substantially less (approximately five times lower) than that caused by aspirin."}}, "data": [{"smiles": "COc1ccc2cc([C@H](C)C(=O)O)ccc2c1", "note": "[Naproxen]", "values": [{"measurement": "anti-inflammatory and analgesic effect", "setting": "[1]; 440 mg per day, 5 days, gavage", "result": "predictable anti-inflammatory and analgesic effect"}, {"measurement": "Edema reduction", "setting": "[1]; 440 mg/day for 5 days, gavage", "result": 28, "unit": "%"}]}, {"smiles": "CC(=O)Oc1ccccc1C(=O)O", "note": "[Aspirin, acetylsalicylic acid]", "values": [{"measurement": "Avg. Bleed Time, Exp. 2", "setting": "[2]", "result": 114, "unit": "s"}, {"measurement": "Avg. Bleed Time, Exp. 1", "setting": "[2]; W. Extract 5000 mg/kg", "result": 120, "unit": "s"}, {"measurement": "Prolongation of bleeding time, Exp. 1", "setting": "[2]; W. Extract 5000 mg/kg, over control animals", "result": 100, "unit": "%"}, {"measurement": "Prolongation of bleeding time, Exp. 2", "setting": "[2]; over control animals", "result": 73, "unit": "%"}, {"measurement": "Gastric irritation Total Score", "setting": "[3]", "result": 9}, {"measurement": "Gastric irritation Total Score", "setting": "[3]; listed as aspirin", "result": "nine"}, {"measurement": "Gastric irritation Response", "setting": "[3]; aspirin 150 mg/kg", "result": 100, "unit": "%"}]}, {"smiles": "COC(=O)c1ccccc1O[C@@H]1O[C@H](CO[C@@H]2OC[C@@H](O)[C@H](O)[C@H]2O)[C@@H](O)[C@H](O)[C@H]1O", "note": "[Gaultherin, gaultherin]", "values": [{"measurement": "Edema reduction", "setting": "[1]; 200 mg/day (human dose equivalent) for 5 days, per-oral gavage", "result": 12.2, "unit": "%"}, {"measurement": "Edema reduction", "setting": "[1]; 400 mg/day (human dose equivalent) for 5 days, per-oral gavage", "result": 16.9, "unit": "%"}, {"measurement": "improvement in pain tolerance (digital Von Frey)", "setting": "[1]; human dose equivalent of 200 mg per day, 5 days, gavage", "result": 6.7, "unit": "%"}, {"measurement": "improvement in pain tolerance (digital Von Frey)", "setting": "[1]; human dose equivalent of 400 mg per day, 5 days, gavage", "result": 9.9, "unit": "%"}]}]}
